Experimental data taken from patent EP0807624B1, “RETINOIC ACID DERIVATIVES” (THE SALK INSTITUTE FOR BIOLOGICAL STUDIES, priority 1991, dated 1993).

How the values were obtained:
[1] = test system: RAR-α; assay: Cotransfection assay in CV-1 cells; type: cell-based, human; details: RARα; maximal response relative to retinoic acid at 10^-5 M
[2] = test system: RAR-β; assay: Cotransfection assay in CV-1 cells; type: cell-based, human; details: RARβ; maximal response relative to retinoic acid at 10^-5 M
[3] = test system: RAR-γ; assay: Cotransfection assay in CV-1 cells; type: cell-based, human; details: RARγ; maximal response relative to retinoic acid at 10^-5 M
[4] = molecular target: T1, RXR-β (Mus musculus, UniProt P28704); assay: Cotransfection assay in CV-1 cells; type: cell-based; details: RXRβ; maximal response relative to retinoic acid at 10^-5 M
T1 sequence (P28704 1-520): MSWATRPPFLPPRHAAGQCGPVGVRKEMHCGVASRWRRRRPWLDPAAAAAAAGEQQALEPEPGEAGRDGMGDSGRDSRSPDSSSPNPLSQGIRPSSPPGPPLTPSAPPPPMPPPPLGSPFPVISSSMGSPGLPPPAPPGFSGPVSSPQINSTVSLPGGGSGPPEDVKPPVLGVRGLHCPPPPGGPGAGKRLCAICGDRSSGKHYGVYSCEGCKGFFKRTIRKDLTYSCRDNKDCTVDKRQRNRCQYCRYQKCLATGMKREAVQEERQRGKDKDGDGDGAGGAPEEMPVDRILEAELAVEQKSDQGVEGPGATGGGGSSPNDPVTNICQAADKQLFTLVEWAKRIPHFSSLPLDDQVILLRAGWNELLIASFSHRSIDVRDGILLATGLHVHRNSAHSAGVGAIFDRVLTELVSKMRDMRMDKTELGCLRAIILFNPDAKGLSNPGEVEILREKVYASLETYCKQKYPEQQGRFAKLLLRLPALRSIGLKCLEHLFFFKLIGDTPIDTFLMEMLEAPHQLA

[5] = molecular target: T2, RXR-γ (Mus musculus, UniProt P28705); assay: Cotransfection assay in CV-1 cells; type: cell-based; details: RXRγ; maximal response relative to retinoic acid at 10^-5 M
T2 sequence (P28705 1-463): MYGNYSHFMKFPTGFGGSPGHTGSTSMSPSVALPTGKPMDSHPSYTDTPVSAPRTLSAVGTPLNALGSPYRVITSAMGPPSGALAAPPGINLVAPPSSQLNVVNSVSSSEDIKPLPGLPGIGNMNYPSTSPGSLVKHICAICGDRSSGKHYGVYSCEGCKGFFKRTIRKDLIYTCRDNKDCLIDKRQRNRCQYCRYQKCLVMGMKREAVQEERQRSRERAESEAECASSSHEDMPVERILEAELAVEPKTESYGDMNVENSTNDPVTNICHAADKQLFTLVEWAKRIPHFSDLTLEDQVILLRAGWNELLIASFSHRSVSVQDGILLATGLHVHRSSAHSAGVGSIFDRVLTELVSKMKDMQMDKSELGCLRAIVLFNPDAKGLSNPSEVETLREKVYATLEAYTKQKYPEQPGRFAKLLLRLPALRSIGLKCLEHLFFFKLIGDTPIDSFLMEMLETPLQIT

[6] = test system: RXR-α; assay: Cotransfection assay in CV-1 cells; type: cell-based, human; details: RXRα; maximal response relative to retinoic acid at 10^-5 M
[7] = test system: human primary metastatic melanoma cell line c81-46c; assay: In vitro proliferation of melanoma cell line; type: cell-based; details: read-out: % Growth inhibition; for inhibition at 0.01 µM: 0.01 µM added; for inhibition at 1 µM: 1 µM added
[8] = test system: normal human epidermal keratinocytes (NHEK534 cell line); assay: cells; details: Keratinocyte, read-out: EC50 for inhibition of differentiation
[9] = test system: murine melanoma cell line Clone M3; assay: In vitro proliferation of melanoma cell line; details: Mus musculus, read-out: % Growth inhibition
[10] = test system: HL60R cells; assay: Differentiation of HL60R cells (NBT); type: cell-based; details: concentrations up to 10 µM
[11] = test system: HL60 cells; assay: cells; details: Homo sapiens, HL-60, 144 h, read-out: EC-50 for differentiation, as determined by NBT

Structure (SMILES) | Efficacy [4] [%] | Efficacy [5] [%] | Efficacy [1] [%] | Efficacy [2] [%] | Efficacy [3] [%] | Efficacy [6] [%] | inhibition at 0.01 µM [7] [%] | inhibition at 1 µM [7] [%] | EC50 [8] [nM] | inhibition at 0.01 µM [9] [%] | inhibition at 1 µM [9] [%] | differentiation (NBT) of HL60R cells [10] | EC50 [11] [nM]
CC1=C(/C=C/C(C)=C\C=C\C(C)=C\C(=O)O)C(C)(C)CCC1O (stereo not drawn) [4-hydroxy-9-cis-retinoic acid] | 143 | 115 | 65 | 71 | 81 |  |  |  |  |  |  |  | 
CC1=C(/C=C/C(C)=C\C=C\C(C)=C\C(=O)O)C(C)(C)CCC1 [9-cis-retinoic acid] |  |  |  |  |  |  | -28 | -45 | 20 ± 2.8 | -49 | -85 |  | 
CC1=C(/C=C/C(C)=C/C=C/C(C)=C/C(=O)O)C(C)(C)CCC1 [all-trans-retinoic acid] |  |  |  |  |  |  | -17 | -44 | 20 ± 2.8 |  |  | resistant to differentiation | 2000

Continued, in another order:

Efficacy [4] [%] | Efficacy [5] [%] | Structure (SMILES) | Efficacy [1] [%] | Efficacy [2] [%] | Efficacy [3] [%] | Efficacy [6] [%] | inhibition at 0.01 µM [7] [%] | inhibition at 1 µM [7] [%] | EC50 [8] [nM] | inhibition at 0.01 µM [9] [%] | inhibition at 1 µM [9] [%] | differentiation (NBT) of HL60R cells [10] | EC50 [11] [nM]
105 | 133 | CC1=C(/C=C/C(C)=C\C=C\C(C)=C\C(=O)O)C(C)(C)CCC1=O [4-keto-9-cis-retinoic acid] |  |  |  | 104 |  |  |  |  |  |  | 
88 | 77 | CC1=C(/C=C/C(=C\C=C\C(C)=C\C(=O)O)c2ccccc2)C(C)(C)CCC1 [9-phenyl-9-cis-retinoic acid] | <2 | 39 | 59 | 76 |  |  |  |  |  |  | 
